Measurements reported in patent US20110033488A1, “AGENTS AND METHODS FOR TREATMENT OF ANXIETY DISORDERS” (Yeda Research and Development Co. Ltd., priority 2008, published 2011).
Peptide text beside a SMILES is read from it.

Legend:
[1] = system: ICAM-1 on choroid plexus cells (ECACC # 00031626); experiment: ICAM-1 expression on choroid plexus cell line; type: cell-based, rat; settings: for ICAM-1 expression: 24 hrs
Description: (iv) Choroid Plexus endothelial cell culture. RCP cells (ECACC # 00031626, a kind gift from Dr. A. Chen, Weizmann Institute) (Battle et al., 2000) were cultured at 37° C. under 95% air/5% CO2 in DMEM medium containing 10% FCS, 100 U/ml penicillin, […], 1% insulin-transferrin-selenium mix (Sigma-Aldrich) and 0.1% Epidermal Growth Factor ([…]). The culture medium was changed every 2 days.
CPx cultures grown on cover slips were washed with PBS, and fixed as described above. The fixed cells were then treated with a blocking solution containing 10% FCS, 2% bovine serum albumin, 1% glycine, and 0.1% Triton X-100 (Sigma-Aldrich), and stained with hamster anti-mouse CD54 (ICAM-1) (Chemicon).

mice = settings: one immunization with 100 μg peptide, without pertussis toxin
[2] = all concentrations tested (1-100 ng/ml)

With TNF-α the ICAM-1 expression [1, 2] was “significant elevation”.

For `CSCC[C@H](N)C(=O)N[C@@H](CCC(=O)O)C(=O)N[C@H](C(=O)NCC(=O)N[C@@H](Cc1c[nH]c2ccccc12)C(=O)N[C@@H](Cc1ccc(O)cc1)C(=O)N[C@@H](CCCNC(=N)N)C(=O)N[C@@H](CO)C(=O)N1CCC[C@H]1C(=O)N[C@@H](Cc1ccccc1)C(=O)N[C@@H](CO)C(=O)N[C@@H](CCCNC(=N)N)C(=O)N[C@H](C(=O)N[C@H](C(=O)N[C@@H](Cc1c[nH]cn1)C(=O)N[C@@H](CC(C)C)C(=O)N[C@@H](Cc1ccc(O)cc1)C(=O)N[C@@H](CCCNC(=N)N)C(=O)N[C@@H](CC(N)=O)C(=O)NCC(=O)N[C@@H](CCCCN)C(=O)O)C(C)C)C(C)C)C(C)C` [pMOG35-55] (H-MEVGWYRSPFSRVVHLYRNGK-OH; N-terminus and C-terminus assumed), the “Induction of EAE” value (mice) was “no EAE was induced”.

`C[C@]12C[C@H](O)[C@H]3[C@@H](CCC4=CC(=O)CC[C@@]43C)[C@@H]1CC[C@@H]2C(=O)CO` [corticosterone, reference compound] was tested, and the “Concentration of peak ICAM-1 expression” value ([1]; 24 hrs incubation) was 1 ng/mL, the ICAM-1 expression ([1]; higher doses 20 ng/ml and 50 ng/ml) was “significantly inhibited” and the ICAM-1 expression ([1]; lower doses 1 ng/ml and 5 ng/ml) was “significantly elevated”.

With IFN-γ: cytokine the ICAM-1 expression ([1]; higher concentrations) was “significant inhibition” and the ICAM-1 expression ([1]; lower concentrations (1 ng and 10 ng)) was “inactive”.

IL-6: cytokine was tested, and the ICAM-1 expression [1, 2] was “no effect”.

B1: IL-10: cytokine (protein, UniProt P22301 19-178, looked up)
Interleukin-10: SPGQGTQSENSCTHFPGNLPNMLRDLRDAFSRVKTFFQMKDQLDNLLLKESLLEDFKGYLGCQALSEMIQFYLEEVMPQAENQDPDIKAHVNSLGENLKTLRLRLRRCHRFLPCENKSKAVEQVKNAFNKLQEKGIYKAMSEFDIFINYIEAYMTMKIRN
With B1 the ICAM-1 expression [1, 2] was “significantly reduced”.
